Test results reported in ChEMBL document CHEMBL3396997, “Piperidine-3,4-diol and piperidine-3-ol derivatives of pyrrolo[2,1-f][1,2,4]triazine as inhibitors of anaplastic lymphoma kinase” (Bioorg Med Chem Lett, 2015).
≈ marks a conversion by molar mass, not a printed value. Calls of active or inactive are those of the source. No cut-off for these calls is given here.

How the values were obtained:
Cytochrome P450 3A4 = Cytochrome P450 3A4 (Homo sapiens, UniProt P08684); assay: Inhibition of CYP3A4 (unknown origin); type: ADME
Cytochrome P450 3A4, sequence (P08684 whole entry): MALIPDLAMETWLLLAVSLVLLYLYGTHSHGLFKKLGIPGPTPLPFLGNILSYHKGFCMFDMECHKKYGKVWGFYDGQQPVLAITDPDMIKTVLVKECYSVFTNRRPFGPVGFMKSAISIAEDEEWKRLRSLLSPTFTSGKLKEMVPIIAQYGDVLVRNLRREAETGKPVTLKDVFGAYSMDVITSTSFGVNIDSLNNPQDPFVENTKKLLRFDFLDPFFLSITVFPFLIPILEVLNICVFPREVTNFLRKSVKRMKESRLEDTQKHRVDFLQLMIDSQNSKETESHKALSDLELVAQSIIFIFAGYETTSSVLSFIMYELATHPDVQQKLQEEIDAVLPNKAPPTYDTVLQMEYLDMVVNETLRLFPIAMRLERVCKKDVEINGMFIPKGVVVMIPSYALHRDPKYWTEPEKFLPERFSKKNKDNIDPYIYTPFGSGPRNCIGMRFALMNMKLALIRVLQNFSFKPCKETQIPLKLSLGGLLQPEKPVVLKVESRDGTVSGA

Cytochrome P450 2C9 = Cytochrome P450 2C9 (Homo sapiens, UniProt P11712); assay: Inhibition of CYP2C9 (unknown origin); type: ADME
Cytochrome P450 2C9, sequence (P11712 whole entry): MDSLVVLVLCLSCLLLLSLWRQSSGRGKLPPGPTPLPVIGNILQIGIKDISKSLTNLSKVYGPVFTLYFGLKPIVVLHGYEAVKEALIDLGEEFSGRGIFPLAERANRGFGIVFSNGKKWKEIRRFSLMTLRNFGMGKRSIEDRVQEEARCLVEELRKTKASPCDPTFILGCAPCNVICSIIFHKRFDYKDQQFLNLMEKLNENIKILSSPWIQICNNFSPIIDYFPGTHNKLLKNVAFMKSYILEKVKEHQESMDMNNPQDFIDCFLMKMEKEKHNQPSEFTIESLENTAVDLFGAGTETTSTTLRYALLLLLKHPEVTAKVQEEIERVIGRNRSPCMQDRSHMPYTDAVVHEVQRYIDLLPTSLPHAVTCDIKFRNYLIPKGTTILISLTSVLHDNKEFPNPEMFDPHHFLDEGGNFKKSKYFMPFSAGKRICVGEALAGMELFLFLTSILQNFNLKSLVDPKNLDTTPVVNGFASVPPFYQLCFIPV

[1] = Plasma concentration in human SUP-M2 cells xenografted SCID mouse at 30 mg/kg, po measured after 16 hrs; type: ADME, organism-based; parameters: dose 30 mg/kg, route oral
[2] = biological target: Voltage-gated inwardly rectifying potassium channel KCNH2 (Homo sapiens, UniProt Q12809); assay: Inhibition of human ERG by patch clamp cellular assay
Voltage-gated inwardly rectifying potassium channel KCNH2, sequence (Q12809 whole entry): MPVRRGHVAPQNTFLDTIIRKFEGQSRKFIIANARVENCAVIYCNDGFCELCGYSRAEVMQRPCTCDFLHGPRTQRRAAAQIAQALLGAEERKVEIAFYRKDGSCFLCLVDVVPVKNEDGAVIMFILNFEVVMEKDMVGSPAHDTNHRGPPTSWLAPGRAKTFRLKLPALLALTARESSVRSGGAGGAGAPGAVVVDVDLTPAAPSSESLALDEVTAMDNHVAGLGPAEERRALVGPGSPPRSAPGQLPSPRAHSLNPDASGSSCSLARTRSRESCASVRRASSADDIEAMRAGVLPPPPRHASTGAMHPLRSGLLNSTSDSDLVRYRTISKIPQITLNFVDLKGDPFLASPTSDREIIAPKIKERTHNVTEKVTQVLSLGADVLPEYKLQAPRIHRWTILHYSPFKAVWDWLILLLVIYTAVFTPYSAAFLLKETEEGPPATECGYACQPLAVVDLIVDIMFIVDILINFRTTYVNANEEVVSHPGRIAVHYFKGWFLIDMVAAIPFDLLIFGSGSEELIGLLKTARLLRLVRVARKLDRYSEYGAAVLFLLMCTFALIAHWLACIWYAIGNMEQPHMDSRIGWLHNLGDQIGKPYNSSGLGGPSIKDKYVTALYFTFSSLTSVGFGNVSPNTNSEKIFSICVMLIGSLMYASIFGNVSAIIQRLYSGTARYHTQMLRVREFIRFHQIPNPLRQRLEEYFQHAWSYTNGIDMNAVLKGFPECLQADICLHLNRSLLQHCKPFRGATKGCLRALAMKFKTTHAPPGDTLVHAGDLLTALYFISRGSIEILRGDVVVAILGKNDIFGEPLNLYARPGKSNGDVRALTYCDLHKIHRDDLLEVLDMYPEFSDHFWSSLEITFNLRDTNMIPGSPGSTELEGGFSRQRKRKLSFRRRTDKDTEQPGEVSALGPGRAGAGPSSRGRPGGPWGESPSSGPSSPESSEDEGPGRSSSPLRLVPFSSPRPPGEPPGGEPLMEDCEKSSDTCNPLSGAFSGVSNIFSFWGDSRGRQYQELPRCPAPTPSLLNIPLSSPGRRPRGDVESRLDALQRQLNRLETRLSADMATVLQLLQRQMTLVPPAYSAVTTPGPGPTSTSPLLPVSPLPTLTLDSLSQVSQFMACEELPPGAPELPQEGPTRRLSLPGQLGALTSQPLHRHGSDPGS

Cytochrome P450 1A2 = biological target: T1, Cytochrome P450 1A2 (Homo sapiens, UniProt P05177); assay: Inhibition of CYP1A2 (unknown origin); type: ADME
T1 sequence (P05177 whole entry): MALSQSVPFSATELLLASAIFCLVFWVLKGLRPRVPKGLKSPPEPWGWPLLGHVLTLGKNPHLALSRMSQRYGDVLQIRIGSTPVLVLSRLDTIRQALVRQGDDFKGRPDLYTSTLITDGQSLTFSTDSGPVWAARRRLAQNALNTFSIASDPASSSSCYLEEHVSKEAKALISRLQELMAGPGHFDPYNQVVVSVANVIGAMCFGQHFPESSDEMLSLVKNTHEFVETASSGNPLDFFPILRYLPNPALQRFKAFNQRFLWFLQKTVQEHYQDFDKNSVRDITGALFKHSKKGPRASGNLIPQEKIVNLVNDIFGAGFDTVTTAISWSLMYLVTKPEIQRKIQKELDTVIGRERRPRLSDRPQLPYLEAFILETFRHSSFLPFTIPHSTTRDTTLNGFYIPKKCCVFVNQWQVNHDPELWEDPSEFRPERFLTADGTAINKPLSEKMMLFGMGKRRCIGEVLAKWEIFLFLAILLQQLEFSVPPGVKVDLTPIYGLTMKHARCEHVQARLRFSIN

Mus musculus [3] = assay: Toxicity in human SUP-M2 cells xenografted SCID mouse assessed as body weight loss at 30 mg/kg, po BID for 10 days; type: organism-based; parameters: dose 30 mg/kg, route oral; conditions: in vivo, 240 h
Mus musculus [4] = assay: Toxicity in human SUP-M2 cells xenografted SCID mouse assessed as incidences of overt toxicity at 55 mg/kg, po BID for 10 days; type: organism-based; parameters: dose 55 mg/kg, route oral; conditions: in vivo, 240 h
Mus musculus [5] = assay: Toxicity in human SUP-M2 cells xenografted SCID mouse assessed as incidences of overt toxicity at 30 mg/kg, po BID for 10 days; type: organism-based; parameters: dose 30 mg/kg, route oral; conditions: in vivo, 240 h
Mus musculus [6] = assay: Toxicity in human SUP-M2 cells xenografted SCID mouse assessed as body weight loss at 55 mg/kg, po BID for 10 days; type: organism-based; parameters: dose 55 mg/kg, route oral; conditions: in vivo, 240 h
Cytochrome P450 2C19 = Cytochrome P450 2C19 (Homo sapiens, UniProt P33261); assay: Inhibition of CYP2C19 (unknown origin); type: ADME
Cytochrome P450 2C19, sequence (P33261 whole entry): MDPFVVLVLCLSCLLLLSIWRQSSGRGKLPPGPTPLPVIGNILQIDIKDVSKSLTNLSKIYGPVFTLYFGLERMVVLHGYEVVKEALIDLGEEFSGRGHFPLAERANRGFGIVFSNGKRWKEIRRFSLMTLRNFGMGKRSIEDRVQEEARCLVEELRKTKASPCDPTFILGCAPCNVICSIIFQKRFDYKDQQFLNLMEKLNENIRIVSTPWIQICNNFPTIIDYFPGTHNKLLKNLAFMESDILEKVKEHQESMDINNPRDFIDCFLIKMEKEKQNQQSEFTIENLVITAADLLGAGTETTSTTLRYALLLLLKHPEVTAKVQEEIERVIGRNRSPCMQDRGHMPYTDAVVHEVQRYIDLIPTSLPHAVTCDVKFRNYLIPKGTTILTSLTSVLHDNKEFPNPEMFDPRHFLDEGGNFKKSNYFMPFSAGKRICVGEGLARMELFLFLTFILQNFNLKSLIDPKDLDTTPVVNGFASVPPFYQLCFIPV

Plasma [7] = assay: (§1) Plasma concentration in human SUP-M2 cells xenografted SCID mouse at 30 mg/kg, po measured after 2 hrs; type: ADME, organism-based; parameters: dose 30 mg/kg, route oral; conditions: in vivo, 2 h
Brain [8] = assay: (§2) Drug concentration in brain of human SUP-M2 cells xenografted SCID mouse at 30 mg/kg, po measured after 6 hrs; type: ADME, organism-based; parameters: dose 30 mg/kg, route oral; conditions: in vivo, 6 h
Plasma [9] = assay: (§3) Plasma concentration in human SUP-M2 cells xenografted SCID mouse at 30 mg/kg, po measured after 6 hrs; type: ADME, organism-based; parameters: dose 30 mg/kg, route oral; conditions: in vivo, 6 h
Brain [10] = assay: (§4) Drug concentration in brain of human SUP-M2 cells xenografted SCID mouse at 30 mg/kg, po measured after 2 hrs; type: ADME, organism-based; parameters: dose 30 mg/kg, route oral; conditions: in vivo, 2 h
[11] = Drug concentration in brain of human SUP-M2 cells xenografted SCID mouse at 30 mg/kg, po measured after 16 hrs; type: ADME, organism-based; parameters: dose 30 mg/kg, route oral; conditions: read-out: Drug uptake
Cytochrome P450 2D6 = Cytochrome P450 2D6 (Homo sapiens, UniProt P10635); assay: Inhibition of CYP2D6A (unknown origin); type: ADME
Cytochrome P450 2D6, sequence (P10635 whole entry): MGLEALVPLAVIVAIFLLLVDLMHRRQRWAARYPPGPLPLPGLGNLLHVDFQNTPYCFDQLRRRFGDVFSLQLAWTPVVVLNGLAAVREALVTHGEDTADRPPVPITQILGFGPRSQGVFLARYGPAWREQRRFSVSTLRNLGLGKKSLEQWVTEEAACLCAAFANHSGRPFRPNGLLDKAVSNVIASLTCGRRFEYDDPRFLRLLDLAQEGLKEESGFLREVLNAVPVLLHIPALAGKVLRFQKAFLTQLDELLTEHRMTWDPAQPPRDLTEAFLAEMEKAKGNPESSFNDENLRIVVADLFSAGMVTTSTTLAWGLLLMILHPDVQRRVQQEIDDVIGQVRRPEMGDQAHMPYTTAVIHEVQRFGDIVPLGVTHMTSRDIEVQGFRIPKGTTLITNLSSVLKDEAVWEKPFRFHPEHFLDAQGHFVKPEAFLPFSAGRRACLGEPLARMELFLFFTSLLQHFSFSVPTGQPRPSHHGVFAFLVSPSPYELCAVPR

[12] = Half life in human liver microsomes; type: ADME
[13] = Half life in rat liver microsomes; type: ADME
[14] = Half life in monkey liver microsomes; type: ADME, Macaca mulatta; conditions: rhesus monkey
[15] = Half life in mouse liver microsomes; type: ADME
[16] = Solubility in water at neutral pH; type: physicochemical
[17] = Clearance in Sprague-Dawley rat at 1 mg/kg, iv; type: ADME, organism-based; parameters: dose 1 mg/kg, route intravenous; conditions: in vivo
[18] = Plasma concentration in human SUP-M2 cells xenografted SCID mouse at 30 mg/kg, po measured after 24 hrs; type: ADME, organism-based; parameters: dose 30 mg/kg, route oral
[19] = AUC (0 to infinity) in Sprague-Dawley rat at 5 mg/kg, po; type: ADME, organism-based; parameters: time infinity, dose 5 mg/kg, route oral; conditions: plasma
[20] = Tmax in Sprague-Dawley rat at 5 mg/kg, po; type: ADME, organism-based; parameters: dose 5 mg/kg, route oral; conditions: in vivo
[21] = Plasma concentration in human SUP-M2 cells xenografted SCID mouse at 30 mg/kg, po measured after 12 hrs; type: ADME, organism-based; parameters: dose 30 mg/kg, route oral
[22] = Drug concentration in brain of human SUP-M2 cells xenografted SCID mouse at 30 mg/kg, po measured after 24 hrs; type: ADME, organism-based; parameters: dose 30 mg/kg, route oral; conditions: read-out: Drug uptake
[23] = Oral bioavailability in Sprague-Dawley rat at 5 mg/kg; type: ADME, organism-based; conditions: in vivo
[24] = Cmax in Sprague-Dawley rat at 5 mg/kg, po; type: ADME, organism-based; parameters: dose 5 mg/kg, route oral; conditions: in vivo
[25] = AUC (0 to infinity) in Sprague-Dawley rat at 1 mg/kg, iv; type: ADME, organism-based; parameters: time infinity, dose 1 mg/kg, route intravenous; conditions: plasma
[26] = as §1; type: ADME, organism-based; parameters: dose 30 mg/kg, route oral; conditions: SCID, plasma
[27] = as §2; type: ADME, organism-based; parameters: dose 30 mg/kg, route oral; conditions: SCID, brain, read-out: Drug uptake
[28] = Volume of distribution in Sprague-Dawley rat at 1 mg/kg, iv; type: ADME, organism-based; parameters: dose 1 mg/kg, route intravenous; conditions: in vivo
[29] = Half life in Sprague-Dawley rat at 1 mg/kg, iv; type: ADME, organism-based; parameters: dose 1 mg/kg, route intravenous; conditions: in vivo
[30] = as §3; type: ADME, organism-based; parameters: dose 30 mg/kg, route oral; conditions: SCID, plasma
[31] = as §4; type: ADME, organism-based; parameters: dose 30 mg/kg, route oral; conditions: SCID, brain, read-out: Drug uptake
[32] = Drug concentration in brain of human SUP-M2 cells xenografted SCID mouse at 30 mg/kg, po measured after 12 hrs; type: ADME, organism-based; parameters: dose 30 mg/kg, route oral; conditions: read-out: Drug uptake
SUP-M2 [33] = assay: Antitumor activity against human SUP-M2 cells xenografted in SCID mouse assessed as induction of tumor regression at 30 mg/kg, po BID for 10 days; type: functional, organism-based; parameters: dose 30 mg/kg
SUP-M2 [34] = assay: Antitumor activity against human SUP-M2 cells xenografted in SCID mouse assessed as induction of tumor regression at 55 mg/kg, po BID for 10 days; type: functional, organism-based; parameters: dose 55 mg/kg

SMILES: COc1cc([C@H]2CCN(CCO)C[C@@H]2O)ccc1Nc1ncc2ccc(-c3ccccc3OC)n2n1 [listing 1 of 2 here]
- IC50 (Cytochrome P450 3A4): 12 µM
- IC50 (Cytochrome P450 2C9): 19 µM
- concentration at 16 h [1]: 567 ng/mL
- IC50 [2]: 6.8 µM
- IC50 (Cytochrome P450 1A2): > 30 µM
- Activity (Mus musculus [3]): Non-toxic
- Activity (Mus musculus [4]): Non-toxic
- Activity (Mus musculus [5]): Non-toxic
- Activity (Mus musculus [6]): Non-toxic
- IC50 (Cytochrome P450 2C19): 17 µM
- Cp (Plasma [7]): 407 ng/mL
- Drug uptake (Brain [8]): 3150 ng/g
- Cp (Plasma [9]): 573 ng/mL
- Drug uptake (Brain [10]): 1217 ng/g
- concentration at 16 h [11]: 16100 ng/g
- IC50 (Cytochrome P450 2D6): > 30 µM

SMILES: COc1cc([C@@H]2CCNC[C@@H]2O)ccc1Nc1ncc2ccc(-c3ccccc3OC)n2n1 (relative stereo)
- half-life [12]: > 40 min
- half-life [13]: > 40 min
- half-life [14]: > 40 min
- half-life [15]: > 40 min

SMILES: COc1cc([C@@H]2CCN(CC(N)=O)C[C@@H]2O)ccc1Nc1ncc2ccc(-c3ccccc3OC)n2n1 (relative stereo)
- half-life [12]: 19 min
- half-life [13]: 34 min
- solubility [16]: 2 µg/mL (≈ 3.98 µM)
- half-life [14]: 7 min
- half-life [15]: > 40 min

SMILES: COc1cc([C@H]2CCN(CCO)C[C@@H]2O)ccc1Nc1ncc2ccc(-c3ccccc3OC)n2n1 (relative stereo)
- clearance [17]: 39 mL/min/kg
- concentration at 24 h [18]: 55 ng/mL
- AUC(0-inf) [19]: 708 ng·h/mL
- Tmax [20]: 4 h
- half-life [12]: > 40 min
- concentration at 12 h [21]: 213 ng/mL
- concentration at 24 h [22]: 1280 ng/g
- bioavailability [23]: 31%
- Cmax [24]: 97 ng/mL
- AUC(0-inf) [25]: 459 ng·h/mL
- half-life [13]: > 40 min
- concentration at 2 h [26]: 523 ng/mL
- concentration at 6 h [27]: 3930 ng/g
- Vd [28]: 10.3 L/kg
- half-life [14]: 30 min
- half-life [29]: 192 min
- concentration at 6 h [30]: 361 ng/mL
- concentration at 2 h [31]: 1960 ng/g
- concentration at 12 h [32]: 2670 ng/g
- half-life [15]: > 40 min

SMILES: COc1cc(C2CCN(CCO)CC2O)ccc1Nc1ncc2ccc(-c3ccccc3OC)n2n1 (single isomer, unassigned; enantiomer 1)
- concentration at 16 h [1]: 51 ng/mL
- concentration at 2 h [26]: 355 ng/mL
- concentration at 6 h [27]: 1160 ng/g
- concentration at 6 h [30]: 148 ng/mL
- concentration at 2 h [31]: 1030 ng/g
- concentration at 16 h [11]: 2210 ng/g

SMILES: COc1cc([C@@H]2CCN(CCO)C[C@@H]2O)ccc1Nc1ncc2ccc(-c3ccccc3OC)n2n1 (racemic)
- clearance [17]: 46 mL/min/kg
- concentration at 24 h [18]: 19 ng/mL
- AUC(0-inf) [19]: 479 ng·h/mL
- Tmax [20]: 6 h
- half-life [12]: > 40 min
- concentration at 12 h [21]: 164 ng/mL
- concentration at 24 h [22]: 1580 ng/g
- bioavailability [23]: 26%
- Cmax [24]: 85 ng/mL
- AUC(0-inf) [25]: 371 ng·h/mL
- half-life [13]: > 40 min
- solubility [16]: 50 µg/mL (≈ 102 µM)
- concentration at 2 h [26]: 389 ng/mL
- concentration at 6 h [27]: 1770 ng/g
- Vd [28]: 9.9 L/kg
- half-life [14]: > 40 min
- half-life [29]: 150 min
- concentration at 6 h [30]: 201 ng/mL
- concentration at 2 h [31]: 1650 ng/g
- concentration at 12 h [32]: 2520 ng/g
- half-life [15]: 37 min

SMILES: COc1cc([C@@]2(O)CCNC[C@@H]2O)ccc1Nc1ncc2ccc(-c3ccccc3OC)n2n1
- half-life [12]: > 40 min
- half-life [13]: > 40 min
- half-life [14]: > 40 min
- half-life [15]: > 40 min

SMILES: COc1cc([C@H]2CCN(CCO)C[C@@H]2O)ccc1Nc1ncc2ccc(-c3ccccc3OC)n2n1 [listing 2 of 2 here]
- inhibition (SUP-M2 [33]): Active
- inhibition (SUP-M2 [34]): Active

SMILES: COc1cc([C@@]2(O)CCN(C)C[C@@H]2O)ccc1Nc1ncc2ccc(-c3ccccc3OC)n2n1 (relative stereo)
- IC50 [2]: Active
- half-life [12]: > 40 min
- half-life [13]: > 40 min
- half-life [14]: 32 min
- half-life [15]: > 40 min

SMILES: COc1cc(C2CCN(C)CC2O)ccc1Nc1ncc2ccc(-c3ccccc3OC)n2n1 (racemic)
- half-life [12]: > 40 min
- half-life [13]: > 40 min
- half-life [14]: 22 min
- half-life [15]: 18 min

SMILES: COc1cc([C@@]2(O)CCN(CC(N)=O)C[C@@H]2O)ccc1Nc1ncc2ccc(-c3ccccc3OC)n2n1
- half-life [12]: > 40 min
- half-life [13]: 31 min
- solubility [16]: ≥ 33 µg/mL
- half-life [14]: 17 min
- half-life [15]: > 40 min

SMILES: COc1cc([C@@]2(O)CCNC[C@@H]2O)ccc1Nc1ncc2ccc(-c3ccccc3N(C)S(C)(=O)=O)n2n1
- half-life [12]: > 40 min
- half-life [13]: > 40 min
- half-life [14]: 25 min
- half-life [15]: > 40 min

SMILES: COc1cc([C@@]2(O)CCN(CC(N)=O)C[C@@H]2O)ccc1Nc1ncc2ccc(-c3ccccc3N(C)S(C)(=O)=O)n2n1
- half-life [12]: 32 min
- half-life [13]: 26 min
- solubility [16]: ≥ 33 µg/mL
- half-life [14]: 8 min
- half-life [15]: > 40 min
